Laboratory results reported in patent US20190092720A1, “FUNCTIONALIZED BENZAMIDE DERIVATIVES AS ANTIVIRAL AGENTS AGAINST HBV INFECTION” (BARUCH S. BLUMBERG INSTITUTE, priority 2012, published 2019).

Columns and labels:
Type in all cases: cell-based, Hepatitis B virus (HBV)
[1] = tested on: HBV replication in AML12HBV10 cells; assay: Antiviral efficacy in AML12HBV10 cells (HBV DNA dot-blot hybridization); conditions: Hepatitis B virus, AML12HBV10, 48 h, read-out: AML12HBV10 EC50, concentration that reduces the amount of HBV DNA by 50%, serial dilution 50 μM to 0.39 μM
Description: The HBV replication inhibitors of the present invention are capable of treating and preventing diseases associated with HBV infection.
The antiviral efficacy of the compounds of the disclosure, as presented in Table 1, were determined in AML12HBV10 cells. AML12HBV10 is an immortalized murine hepatocyte (AML12)-derived stable cell line that supports robust HBV replication in a tetracycline inducible manner (Xu et al.). The cells were seeded into 96 well plates at a density of 2×10^4 cells per well and cultured in DMEM/F12 media with 10% fetal bovine serum in the absence of tetracycline to allow pgRNA transcription and HBV DNA replication. One day after seeding, cells were left untreated or treated with a serial dilution of testing compounds, ranging from 50 μM to 0.39 μM, for 48 hours. Cells were then lysed by adding into each well of 100 μl lysis buffer containing 10 mM Tris-HCl (pH 7.6), 1 mM EDTA, 100 mM NaCl and 1% NP-40 and incubated at 37° C. for 30 minutes. Half amount (50 μl) of cell lysate from each well was combined with equal volume of denaturing solution containing 0.5N NaOH and 1.5M NaCl. After 5 minute incubation, 100 µl of neutralization solution (1M Tris-HCl, pH 7.4, 1.5M NaCl) was added into each well. The denatured cell lysates (totally 200 μl) were applied onto Nylon membrane using 96-well dot-blot manifold (Biorad). HBV DNA in the cell lysates were determined by dot-blot hybridization with alpha-^32P-UTP-labelled riboprobe specific for HBV minus strand DNA. The antiviral efficacy of a compound of the disclosure was expressed as the concentration that reduces the amount of HBV DNA by 50% (EC50).

[2] = tested on: HBV replication in HepDES19 cells; assay: Antiviral activity in HepDES19 cells (core-associated HBV DNA, Southern blot); conditions: Hepatitis B virus, HepDES19, 144 h, concentration that reduces core-associated HBV DNA by 50%; 6 days; serial dilution 10 μM to 0.018 μM
Excerpt: Determination of antiviral activity of compounds of the disclosure, as presented in Table 1, in human hepatoma-derived cell lines: To further confirm the antiviral activity of the compounds of the disclosure against HBV in human hepatocyte-derived cells, HepDES19 cells, a human hepatoma cell line supporting HBV replication in a tetracycline inducible manner (Guo et al., 2007), seeded into 12-well plates at a density of 5×10^5 cells per well and cultured in DMEM/F12 media with 10% fetal bovine serum and 1 μg/ml tetracycline. Two days after seeding, the cells were mock-treated or treated with a serial dilution of compounds of the disclosure, ranging from 10 μM to 0.018 μM, for 6 days in the absence of tetracycline. Upon the completion of treatment, cells were lysed by adding into each well of the 12-well plates 0.5 ml of lysis buffer containing 10 mM Tris-HCl (pH 8.0), 1 mM EDTA, 1% NP40 and 2% sucrose and incubating at 37° C. for 10 minutes. Cell debris and nuclei were removed by centrifugation and the supernatant was mixed with 130 μl of 35% polyethylene glycol (PEG) 8000 containing 1.5 M NaCl. After 1 hour incubation in ice, viral nucleocapsids were pelleted by centrifugation at 6,000×g for 5 min at 4° C., followed by 1 hour digestion at 37° C. in 400 μl of digestion buffer containing 0.5 mg/ml pronase (Calbiochem), 0.5% SDS, 150 mM NaCl, 25 mM Tris-HCl (pH 8.0) and 10 mM EDTA. The digestion mixture was extracted twice with phenol and DNA was precipitated with ethanol, dissolved in TE buffer (10 mM Tris-HCl, pH 8.0; 0.1 mM EDTA). One half of the DNA sample from each well was resolved by electrophoresis into a 1.5% agarose gel. The gel was then subjected to denaturation in a solution containing 0.5 M NaOH and 1.5 M NaCl, followed by neutralization in a buffer containing 1 M Tris-HCl (pH7.4) and 1.5 M NaCl. DNA was then blotted onto Hybond-XL membrane (GE Health care) in 20×SSC buffer. The amounts of cytoplasmic HBV core-associated HBV DNA were determined by Southern blot hybridization and the antiviral efficacy of a compound was expressed as its concentration that reduce the amount of HBV DNA by 50% (EC50) or 90% (EC90).

HBV mRNA = assay: Intracellular viral RNA by Northern blot in AML12HBV10 cells; conditions: 2 days, FIG. 1 panel A
Description: (§1) FIG. 1. Antiviral mechanism of the compounds of the present invention. AML12HBV10 cells were left untreated (NT) or treated with the indicated concentrations of the compounds of the disclosure Compound 6 and Compound 19, respectively, for 2 days. Bay-4109 (3 µM) or AT-61 (25 µM) served as positive controls. (A) Intracellular viral RNA was determined by Northern blot hybridization. Ribosomal RNA served as a loading control. (B) The total amounts of nucleocapsids were determined by a particle gel assay. (C) Encapsidated pgRNA were extracted and measured by Northern blot. (D) Nucleocapsid-associated HBV DNA was quantified by alkaline-treatment of nucleocapsids on the membrane following the particle gel assay and hybridized with a HBV-specific riboprobe. (E) HBV DNA replication intermediates were extracted and determined by Southern blot hybridizations.
Procedure for analysis of HBV mRNA: Upon the completion of treatment, total cellular RNA was extracted with TRIzol reagents (Invitrogen). Five micrograms of total RNA was resolved in 1.5% agarose gel containing 2.2 M formadelhyde and transferred onto Hybond-XL membrane in 20×SSC buffer. The amounts of HBV mRNA were determined by Northern blot hybridization with an alpha-^32P-UTP labeled riboprobe specific for plus strand of HBV genome.

HBV capsids = assay: Particle gel assay of nucleocapsids in AML12HBV10 cells; conditions: 2 days, FIG. 1 panel B
Description: as §1
Procedures of viral capsids and nucleocapsid-associated DNA analysis: AML12HB10 cells were lysed by addition of 300 μl buffer containing 10 mM Tris-HCl (pH7.6), 100 mM NaCl, 1 mM EDTA and 0.1% NP-40 to each well of 12-well plate. Cell debries were removed by centrifugation at 5000 g for 10 minutes. Ten microliters of the clarified cell lysates were fractionated by electrophoresis through nondenaturing 1% agarose gels and transferred to a nitrocellulose filter by blotting with TNE buffer (10 mM Tris-HCl, pH7.6; 150 mM NaCl and 1 mM EDTA). HBV capsids were detected by probing the membrane with an antibody against HBV core protein (DAKO). […] To detect capsid associated HBV DNA, the membrane were treated with buffer containing 0.5N NaOH and 1.5 M NaCl for 5 minutes and followed by neutralization with buffer containing 1 M TRIS-HCl and 1.5M NaCl for 5 minutes. The viral DNA was detected by hybridization with a α-^32P-UTP (800 Ci/mmol, Perkin Elmer) labeled minus strand specific full-length HBV riboprobe (Xu et al.).

O=C(Nc1cccc(Cl)c1)c1scc2c1OCCO2 [Entry 6]
EC50 [1]: 0.4 µM | EC50 [2]: 13.5 µM | amount of viral mRNA (HBV mRNA): did not affect | capsid formation (HBV capsids): did not significantly affect
